The text below walks through data of patent publication US20240140958A1, “FUSED QUADRACYCLIC COMPOUNDS, COMPOSITIONS AND USES THEREOF” (Tabomedex Biosciences, Inc., priority 2021, published 2024).

Assay [1] has as its target T1, MAPKAPK2 Recombinant Human Protein (Homo sapiens, UniProt P49137).
T1 construct: purchased ThermoFisher pv3317
The assay can be described thus: MK2 kinase assay (Z'-LYTE kinase assay kit). To be noted: inhibition of MK2 biochemical activity; 90 min incubation at room temperature. Put shortly:
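Z'-LYTE FRET assay with recombinant human MAPKAPK2 and peptide substrate; compound and ATP added, kinase reaction 90 min at room temperature, then development 60 min before stop. Coumarin (445 nm) and fluorescein (520 nm) emissions read at 400 nm excitation.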

The next assay concerns THP-1 cells. In words: THP-1 cell assay: LPS-stimulated pSer78-Hsp27 ELISA. It counts as cell-based. To be noted: Homo sapiens, PMA-differentiated THP-1 cells, compound 60 min before 20 ng/mL LPS for 30 min. From the text: Materials and Reagents for Measuring Activity in THP-1 Cells: • 1) THP-1 cells (Cell bank of Shanghai) • 2) PMA (Sigma, Cat.No. P1585) • 3) LPS (Sigma, Cat.No. L4516) • 4) 96-well tissue-culture treated plate (Grenier, Cat.No. 655180) • 5) FBS (Thermofisher, Cat.No. 10100147) • 6) Complete EDTA-free protease inhibitor Cocktail (Roche, Cat.No. 4693132001) • 7) PhosSTOP (Roche, Cat.No. 4906845001) • 8) Phosphor-Hsp27 (Ser78) Sandwich Elisa kit (CST, Cat.No. 7295)
Cell Assay Procedure: • 1) Day 0: THP-1 cells are seeded at 50K/well in complete media (1640+10% FBS+50 μM β-ME)+20 ng/mL PMA in 96-well plate • 2) Day 1: PMA containing media is removed after 24 h incubation (37° C./5% CO2), and replaced with complete growth media. Cells are incubated an additional 48 h to recover. • 3) Day 3: Cells are incubated with or without compounds at indicated concentrations for 60 min, prior to addition of 20 ng/mL LPS. Cells are stimulated for 30 min with LPS, washed 1× with ice cold PBS, lysed on ice in Lysis buffer provided in ELISA kit with Roche protease & phosphatase inhibitors. Extracts are clarified by refrigerated centrifugation & stored at −80° C. until pHsp27/total Hsp27 ELISAs • 4) Day 3 or Day 4: Cell Signaling Technology ELISA is run for pSer78-Hsp27 on lysates diluted to approximately 2.5 μg/well. • 5) The absorbance at 450 nm was read in a SpectraMax plus plate reader (Molecular Devices). Data was processed using GraphPad prism 8.0.
For orientation: ELISA stands for enzyme-linked immunosorbent assay.

T1 sequence (P49137 whole entry): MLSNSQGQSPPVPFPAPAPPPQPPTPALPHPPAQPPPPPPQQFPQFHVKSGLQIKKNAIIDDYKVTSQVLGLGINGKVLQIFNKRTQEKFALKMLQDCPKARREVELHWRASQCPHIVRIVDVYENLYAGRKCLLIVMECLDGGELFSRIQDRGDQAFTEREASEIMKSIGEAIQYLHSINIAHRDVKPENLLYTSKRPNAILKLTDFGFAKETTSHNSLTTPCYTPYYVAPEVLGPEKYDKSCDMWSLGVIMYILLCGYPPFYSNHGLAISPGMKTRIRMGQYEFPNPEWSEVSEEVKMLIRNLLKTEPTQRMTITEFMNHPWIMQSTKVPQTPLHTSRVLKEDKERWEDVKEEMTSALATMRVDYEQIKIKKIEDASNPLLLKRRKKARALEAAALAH

`N#Cc1ccc(-c2cc3n(c2)Cc2cc(NC(=O)C4CCNC4)ccc2-n2ccnc2-3)cc1` (stereo not drawn) [Example 76, N-(12-(4-Cyanophenyl)-9H-benzo[e]imidazo[2,1-c]pyrrolo[1,2-a][1,4]diazepin-7-yl)pyrrolidine-3-carboxamide]: the IC50 in assay [1] is less than 50 nM; with THP-1 cells, 1000 to 1500 nM.
For `CN(C)C(C)(C)[C@H]1CC(=O)N(c2ccc3c(c2)Cn2cc(-c4ccc(C#N)cc4)cc2-c2nccn2-3)C1` [Example 54] the same measures were less than 50 nM and less than 50 nM.
Taken in the same sequence, the figures for `CN(C)CCn1ccn(-c2ccc3c(c2)Cn2cc(-c4ccc(C#N)cc4)cc2-c2nccn2-3)c1=O` [Example 70, 4-(7-(3-(2-(Dimethylamino)ethyl)-2-oxo-2,3-dihydro-1H-imidazol-1-yl)-9H-benzo[e]imidazo[2,1-c]pyrrolo[1,2-a][1,4]diazepin-12-yl)benzonitrile] were less than 50 nM and 500 to 1000 nM.
Taken in the same sequence, the figures for `N#Cc1ccc(-c2cc3n(c2)Cc2cc(N4C[C@@H](CN5CCC5)CC4=O)ccc2-n2ccnc2-3)cc1` [Example 27] were less than 50 nM and less than 50 nM.
In the case of `CN(C)CC1CCN(c2ccc3c(c2)Cn2cc(-c4ccc(C#N)cc4)cc2-c2nccn2-3)C1=O` (stereo not drawn) [Example 34, 4-(7-(3-((Dimethylamino)methyl)-2-oxopyrrolidin-1-yl)-9H-benzo[e]imidazo [2,1-c]pyrrolo[1,2-a][1,4]diazepin-12-yl)benzonitrile], the IC50 (in assay [1]; with THP-1 cells) was less than 50 nM in each case.
For `CN(C)[C@H]1C[C@H](NC(=O)c2ccc3c(c2)Cn2cc(-c4ccc(C#N)cc4)cc2-c2nccn2-3)C1` [Example 126], the values for the IC50 (in assay [1]; in the assay on THP-1 cells) were less than 50 nM and 500 to 1000 nM, respectively.
For `N#Cc1ccc(-c2cc3n(c2)Cc2cc(N4CC(=O)N(CC5CNC5)C4=O)ccc2-n2ccnc2-3)cc1` [Example 66] the same measures were less than 50 nM and greater than 1000 nM.
For the molecule `N#Cc1ccc(-c2cc3n(c2)Cc2cc(N4C[C@@H](C5(N)CC5)CC4=O)ccc2-n2ccnc2-3)cc1` [Example 50], the results for the IC50 (in assay [1]; with THP-1 cells) were less than 50 nM and 50 to 100 nM, respectively.
Taken in the same sequence, the figures for `N#Cc1ccc(-c2cc3n(c2)Cc2cc(N4C[C@@H](CNC5(CO)CC5)CC4=O)ccc2-n2ccnc2-3)cc1` [Example 16] were 50 to 100 nM and 400 to 500 nM.
On to `CN(C)[C@@H]1CCN(C(=O)Nc2ccc3c(c2)Cn2cc(-c4ccc(C#N)cc4)cc2-c2nccn2-3)C1` [Example 74], for which the figures for the IC50 (in assay [1]; in the assay on THP-1 cells) were less than 50 nM and 50 to 100 nM, respectively.
Taken in the same sequence, the figures for `[2H]C([2H])([2H])N(CC1CCN(c2ccc3c(c2)Cn2cc(-c4ccc(C#N)cc4)cc2-c2nnc(C)n2-3)C1=O)C([2H])([2H])[2H]` (stereo not drawn) [Example 86, 4-(7-(3-((Bis(methyl-d3)amino)methyl)-2-oxopyrrolidin-1-yl)-3-methyl-9H-benzo [e]pyrrolo[1,2-a][1,2,4]triazolo[3,4-c][1,4]diazepin-12-yl)benzonitrile] were less than 50 nM and 300 to 400 nM.
For `CC(C)N1CCC(C(=O)Nc2ccc3c(c2)Cn2cc(-c4ccc(C#N)cc4)cc2-c2nccn2-3)C1` (stereo not drawn) [Example 77, N-(12-(4-Cyanophenyl)-9H-benzo[e]imidazo[2,1-c]pyrrolo[1,2-a][1,4]diazepin-7-yl)-1-isopropylpyrrolidine-3-carboxamide] the same measures were 50 to 100 nM and 100 to 200 nM.
Taken in the same sequence, the figures for `N#Cc1ccc(-c2cc3n(c2)Cc2cc(N4C[C@@H](CN5CCC5)OC4=O)ccc2-n2ccnc2-3)cc1` [Example 5] were less than 50 nM and less than 50 nM.
On to `CC(C)NC[C@H]1CC(=O)N(c2ccc3c(c2)Cn2cc(-c4ccc(C#N)cc4)cc2-c2nccn2-3)C1` [Example 12], for which the IC50 is less than 50 nM in assay [1] and 100 to 200 nM in the assay on THP-1 cells.
On to `CN(C)C[C@H]1CC(=O)N(c2ccc3c(c2)Cn2cc(-c4ccc(C#N)cc4)cc2-c2ncnn2-3)C1` [Example 87, (R)-4-(7-(4-((Dimethylamino)methyl)-2-oxopyrrolidin-1-yl)-9H-benzo[e]pyrrolo [1,2-a][1,2,4]triazolo[5,1-c][1,4]diazepin-12-yl)benzonitrile], for which the results for the IC50 (in assay [1]; in the assay on THP-1 cells) were less than 50 nM and 100 to 200 nM, respectively.
Regarding `CN1CCC(NC(=O)c2ccc3c(c2)Cn2cc(-c4ccc(C#N)cc4)cc2-c2nccn2-3)C1` (stereo not drawn) [Example 105], the IC50 was less than 50 nM in assay [1] and 500 to 1000 nM in the assay on THP-1 cells.
Taken in the same sequence, the figures for `CC(C)(C)NC[C@@H]1CN(c2ccc3c(c2)Cn2cc(-c4ccc(C#N)cc4)cc2-c2nccn2-3)C(=O)O1` [Example 4] were less than 50 nM and less than 50 nM.
For `CN1CC(NC(=O)c2ccc3c(c2)Cn2cc(-c4ccc(C#N)cc4)cc2-c2nccn2-3)C1` [Example 119, 2-(4-Cyanophenyl)-N-(1-methylazetidin-3-yl)-9H-benzo[e]imidazo[2,1-c]pyrrolo [1,2-a][1,4]diazepine-7-carboxamide] the same measures were less than 50 nM and 500 to 1000 nM.
Taken in the same sequence, the figures for `CN(C)C[C@H]1[C@@H]2CN(c3ccc4c(c3)Cn3cc(-c5ccc(C#N)cc5)cc3-c3nccn3-4)C(=O)[C@H]12` [Example 46] were less than 50 nM and 200 to 300 nM.
Turning to `CN(C)CC1CC(=O)N(c2cc3c(cc2F)-n2ccnc2-c2cc(-c4ccc(C#N)cc4)cn2C3)C1` (stereo in doubt) [Example 91], the IC50 in assay [1] lay in the range of 50 to 100 nM; with THP-1 cells it was 300 to 400 nM.
Taken in the same sequence, the figures for `CN(C)CC1CC12CCN(c1ccc3c(c1)Cn1cc(-c4ccc(C#N)cc4)cc1-c1nccn1-3)C2=O` (stereo not drawn) [Example 47, 4-(7-(1-((Dimethylamino)methyl)-4-oxo-5-azaspiro[2.4]heptan-5-yl)-9H-benzo[e]imidazo[2,1-c]pyrrolo[1,2-a][1,4]diazepin-12-yl)benzonitrile] were less than 50 nM and 100 to 200 nM.
Regarding `CN1CC2(CC(=O)N(c3ccc4c(c3)Cn3cc(-c5ccc(C#N)cc5)cc3-c3nccn3-4)C2)C1` [Example 23, 4-(7-(2-Methyl-7-oxo-2,6-diazaspiro[3.4]octan-6-yl)-9H-benzo[e]imidazo [2,1-c]pyrrolo[1,2-a][1,4]diazepin-12-yl)benzonitrile], the IC50 is less than 50 nM in assay [1] and 200 to 300 nM with THP-1 cells.
`N#Cc1ccc(-c2cc3n(c2)Cc2cc(N4C[C@@H](CNC5CC5)CC4=O)ccc2-n2ccnc2-3)cc1` [Example 15]: the IC50 (in assay [1]; in the assay with THP-1 cells) was less than 50 nM throughout.
Consider `CN(CCO)C[C@H]1CC(=O)N(c2ccc3c(c2)Cn2cc(-c4ccc(C#N)cc4)cc2-c2nccn2-3)C1` [Example 11], for which the figures for the IC50 (in assay [1]; in the assay with THP-1 cells) were 50 to 100 nM and 100 to 200 nM, respectively.
Regarding `CN(C)C[C@H]1CCN(c2ccc3c(c2)Cn2cc(-c4ccc(C#N)cc4)cc2-c2nccn2-3)C1=O` (single isomer, unassigned) [Example 35], the IC50 (in assay [1]; in the assay on THP-1 cells) was less than 50 nM throughout.
For the molecule `CN(CCO)C[C@H]1CCN(c2ccc3c(c2)Cn2cc(-c4ccc(F)cc4)cc2-c2nccn2-3)C1=O` [Example 90, (R)-1-(12-(4-Fluorophenyl)-9H-benzo[e]imidazo[2,1-c]pyrrolo[1,2-a][1,4]diazepin-7-yl)-3-(((2-hydroxyethyl)(methyl)amino)methyl)pyrrolidin-2-one], the values for the IC50 (in assay [1]; in the assay on THP-1 cells) were less than 50 nM and 50 to 100 nM, respectively.
Taken in the same sequence, the figures for `CC(C)(N)CN1C(=O)CN(c2ccc3c(c2)Cn2cc(-c4ccc(C#N)cc4)cc2-c2nccn2-3)C1=O` [Example 68] were less than 50 nM and less than 50 nM.
Consider `CN(CCO)CC1CCN(c2ccc3c(c2)Cn2cc(-c4ccc(C#N)cc4)cc2-c2nccn2-3)C1=O` (stereo not drawn) [Example 37], for which the IC50 (in assay [1]; in the assay with THP-1 cells) was 50 to 100 nM each time.
As for `N#Cc1ccc(-c2cc3n(c2)Cc2cc(N4C[C@@H](CN5CC(O)C5)CC4=O)ccc2-n2ccnc2-3)cc1` [Example 29], the IC50 in assay [1] was less than 50 nM; with THP-1 cells it was 50 to 100 nM.
On to `Cc1nnc2n1-c1ccc(N3C[C@@H](CN4CCC4)CC3=O)cc1Cn1cc(-c3ccc(C#N)cc3)cc1-2` [Example 82], for which the IC50 in assay [1] is 50 to 100 nM; with THP-1 cells, 300 to 400 nM.
`CNC[C@@H]1CN(c2ccc3c(c2)Cn2cc(-c4ccc(C#N)cc4)cc2-c2nccn2-3)C(=O)O1` [Example 3]: the IC50 (in assay [1]; with THP-1 cells) was less than 50 nM throughout.
Turning to `CNC[C@H]1CC(=O)N(c2ccc3c(c2)Cn2cc(-c4ccc(C#N)cc4)cc2-c2nccn2-3)C1` [Example 9], the IC50 is less than 50 nM in assay [1] and 50 to 100 nM in the assay with THP-1 cells.
Take `CN(C)[C@H]1C[C@@H](N2CCN(c3ccc4c(c3)Cn3cc(-c5ccc(C#N)cc5)cc3-c3nccn3-4)C2=O)C1` [Example 59]: the IC50 in assay [1] is less than 50 nM; in the assay on THP-1 cells, 50 to 100 nM.

As usually defined, the IC50 is the concentration that inhibits the measured activity by half.
